Here are results for six molecules from patent US20180057538A1, “POTENT AND HIGHLY SOLUBLE PEGYLATED COMPSTATIN PEPTIDES” (The Regents of the University of California, priority 2016, published 2018).

Data set [1] in a line: Apparent solubility measurements in PBS pH 7.4. In kind it is physicochemical. To be noted: PBS pH 7.4, 5-10 mg/mL. The protocol:
Compstatin analogs were dissolved in phosphate buffered saline (PBS) at pH 7.4 to concentrations of 10, 7.5, and 5 mg/mL. At each concentration point, the peptide solutions were vortexed for 30 seconds and then centrifuged at 13000×g for 5 minutes. The supernatant was collected and measured 5 times spectrophotometrically at 280 nm. Optical densities were converted into concentration according to Beer-Lambert law. An extinction coefficient of 11125 M^−1 cm^−1 was used for each compstatin analog since each peptide contains two tryptophan amino acids (tryptophan extinction coefficient being 5562.5 M^−1 cm^−1).

In data set [2] the test system is NHS-induced basal C5b-9n deposition by RPE cells. The data set is described as follows: Human RPE cell-based assay, anti-C5b-9n immunofluorescence of sub-RPE deposits. To be noted: for reduction in NHS-induced basal C5b-9n deposition: 2 μM peptide, 10% NHS, 24 h, decellularized whole mounts, normalized to NHS-treated samples. The protocol:
The in vitro model of drusen biogenesis was used according to Johnson et al. (Proceedings of the National Academy of Sciences of the United States of America 2011; 108(45):18277-82) and used in assessing the efficacy of compstatin peptides. Briefly, human fetal RPE cells within the second passage were grown on laminin-coated porous inserts (Millipore, Billerica, Mass., USA) in Miller medium supplemented with 5% fetal bovine serum (FBS, HyClone, Logan, Utah, USA) at 37° C. and 5% CO2 in a humidified incubator. After culturing for 2-3 months, cells were rinsed with PBS and treated with Miller medium containing either 5% FBS (negative control) or 10% NHS without or with the inhibitory peptides (2 μM). The choice of 2 μM dose for this assay was based on the intent to use double the IC50 concentration, which was determined to be ˜1 μM. All inhibitory peptides were pre-mixed with NHS on a rocker at room temperature for 30 min and then warmed to 37° C. prior to addition to RPE cell cultures for 24 h. […]
Immunolabeled RPE sections and decellularized culture inserts were imaged using a Leica SP5 confocal microscope. Single-plane images from multiple non-overlapping areas were acquired using a 63× objective, and C5b-9n (MAC) immunofluorescence signals were quantified using ImageJ (NIH), as described Gorham et al. (Experimental Eye Research 2013; 116:96-108). Briefly, the thresholding tool of ImageJ was used to analyze each color channel separately, with the upper threshold set to include C5b-9n-associated fluorescence and the lower threshold set to eliminate any background fluorescence. For statistical analysis, fluorescence intensity measurements of C5b-9n were averaged with respect to the number of RPE nuclei per image (for vibratome sections) or total image area (for decellularized whole-mount samples) and then expressed as a percentage of the corresponding fluorescence intensities from samples exposed to NHS in the absence of any inhibitory peptide (positive control). All data were obtained from multiple images (n≧9) and expressed as mean±SEM. […]

Data set [3] concerns complement activation. Kind of data set: Hemolytic assay (rabbit erythrocytes lysed by normal human serum in VBS-MgEGTA). The data set is classed as cell-based. Conditions: ligand concentration at 50% maximal inhibition, triplicate runs (N = 3). The protocol:
Rabbit erythrocytes (Complement Technology, Inc, Tyler, Tex., USA) were washed with PBS and then resuspended in a veronal-buffered saline solution containing 5 mM MgCl2 and 10 mM EGTA (VBS-MgEGTA). Two-fold serial dilutions of the compstatin analogs were performed in round-bottom 96-well plates and then further diluted in VBS-MgEGTA. Normal human serum (NHS; Complement Technology, Inc) diluted in VBS-MgEGTA was added to each well followed by incubation at ambient temperature for 15 minutes. Subsequently, 30 μL of rabbit erythrocytes at a concentration of 1.25×10^8 cells/mL were added to each well. Positive controls for lysis consisted of: (1) erythrocytes in deionized water and (2) erythrocytes in NHS diluted with VBS-MgEGTA. Negative controls for lysis consisted of: (1) erythrocytes in VBS-MgEGTA and (2) erythrocytes in NHS diluted in VBS-EDTA. Next, plates were incubated at 37° C. for 20 minutes and then ice cold VBS containing 50 mM EDTA was added to each well to quench hemolytic reactions. Plates were centrifuged at 1000×g for 5 minutes and the supernatant was diluted 1:1 with deionized water in flat-bottom 96-well plates. Absorbance was measured spectrophotometrically at 405 nm to quantify lysis.

Data set [4] has as its system complement activation. Conditions: alternative pathway-mediated erythrocyte lysis assay; cited from earlier work.
Data set [5] addresses complement C3 in normal human serum (human, UniProt P01024 23-1663). The data set is described as follows: cell-based or functional assay.
Data set [6] addresses T1, purified C3c (Complement Technology) (UniProt P01024 23-667; P01024 749-954; P01024 1321-1663, limits assumed).
T1 construct: domain: C3c; C3c is a multi-chain proteolytic fragment of C3; also called complement protein C3c
Kind of data set: competitive microscale thermophoresis: Peptide 2 titrated against C3c in the presence of the Cy5-labeled Competition Peptide, mean±SEM of 7 replicates. The protocol: The labeled form of the Competition Peptide was used. Thermophoretic data is plotted as mean±SEM from 7 replicate experiments, together with the fitted binding curve. The dotted lines in red indicate the 95% confidence interval of the fitted binding curve. The black dotted line represents the baseline thermophoretic response in the absence of binding. The inset table indicates the KD±SEM.
The binding affinity of Peptide 2 was evaluated in a competitive microscale thermophoresis assay, using a Monolith NT.115 instrument (NanoTemper Technologies GmbH, Munich, Germany). Competition was performed against the Competition Peptide, labeled with Cy5 for signal detection. Two different 1:1 serial dilution series of Peptide 2 were performed in MST buffer (50 mM Tris-HCl, 150 mM NaCl, 10 mM MgCl₂, 0.05% Tween 20). The first dilution series started with a final concentration of 333 μM and ended in a final concentration of 40.69 nM, while the second dilution series started with a final concentration of 166.67 μM and ended in a final concentration of 20.35 nM. […] Following the incubation, the samples were loaded into hydrophilic capillary tubes and the thermophoretic response of the fluorescently labeled marker was measured. […]
(§1) The binding affinity of Peptide 2 to C3c was determined using the microscale thermophoresis assay described herein. […]

Data set [7] addresses T1, purified C3c (Complement Technology). The data set is described as follows: competitive microscale thermophoresis (Monolith NT.115); Peptide 2 titrated against Cy5-labeled Competition Peptide on purified C3c. The protocol:
The binding affinity of Peptide 2 was evaluated in a competitive microscale thermophoresis assay, using a Monolith NT.115 instrument (NanoTemper Technologies GmbH, Munich, Germany). Competition was performed against the Competition Peptide, labeled with Cy5 for signal detection. Two different 1:1 serial dilution series of Peptide 2 were performed in MST buffer (50 mM Tris-HCl, 150 mM NaCl, 10 mM MgCl₂, 0.05% Tween 20). The first dilution series started with a final concentration of 333 μM and ended in a final concentration of 40.69 nM, while the second dilution series started with a final concentration of 166.67 μM and ended in a final concentration of 20.35 nM. To each dilution series of Peptide 2, purified C3c (Complement Technology) and the Competition Peptide ([…]) were dissolved to final concentrations of 117 nM ([…]) and 50 nM (Competition Peptide). The resulting mixture was incubated for 15 minutes in the dark at room temperature. Following the incubation, the samples were loaded into hydrophilic capillary tubes and the thermophoretic response of the fluorescently labeled marker was measured. […]
as §1
On the technique in general: In MST a laser heats a spot of the sample, and binding alters the fluorescence response.

Like-named read-outs stand apart in the source and are kept apart here. Positions of bridges follow the written chain, without caps; N, C: chain ends. Primed or numbered codes have the meaning given here. PEG8′ = 8 PEG blocks attached at the backbone of the C-terminal amino acid

Sequence of complement C3 in normal human serum (P01024 23-1663 limits assumed): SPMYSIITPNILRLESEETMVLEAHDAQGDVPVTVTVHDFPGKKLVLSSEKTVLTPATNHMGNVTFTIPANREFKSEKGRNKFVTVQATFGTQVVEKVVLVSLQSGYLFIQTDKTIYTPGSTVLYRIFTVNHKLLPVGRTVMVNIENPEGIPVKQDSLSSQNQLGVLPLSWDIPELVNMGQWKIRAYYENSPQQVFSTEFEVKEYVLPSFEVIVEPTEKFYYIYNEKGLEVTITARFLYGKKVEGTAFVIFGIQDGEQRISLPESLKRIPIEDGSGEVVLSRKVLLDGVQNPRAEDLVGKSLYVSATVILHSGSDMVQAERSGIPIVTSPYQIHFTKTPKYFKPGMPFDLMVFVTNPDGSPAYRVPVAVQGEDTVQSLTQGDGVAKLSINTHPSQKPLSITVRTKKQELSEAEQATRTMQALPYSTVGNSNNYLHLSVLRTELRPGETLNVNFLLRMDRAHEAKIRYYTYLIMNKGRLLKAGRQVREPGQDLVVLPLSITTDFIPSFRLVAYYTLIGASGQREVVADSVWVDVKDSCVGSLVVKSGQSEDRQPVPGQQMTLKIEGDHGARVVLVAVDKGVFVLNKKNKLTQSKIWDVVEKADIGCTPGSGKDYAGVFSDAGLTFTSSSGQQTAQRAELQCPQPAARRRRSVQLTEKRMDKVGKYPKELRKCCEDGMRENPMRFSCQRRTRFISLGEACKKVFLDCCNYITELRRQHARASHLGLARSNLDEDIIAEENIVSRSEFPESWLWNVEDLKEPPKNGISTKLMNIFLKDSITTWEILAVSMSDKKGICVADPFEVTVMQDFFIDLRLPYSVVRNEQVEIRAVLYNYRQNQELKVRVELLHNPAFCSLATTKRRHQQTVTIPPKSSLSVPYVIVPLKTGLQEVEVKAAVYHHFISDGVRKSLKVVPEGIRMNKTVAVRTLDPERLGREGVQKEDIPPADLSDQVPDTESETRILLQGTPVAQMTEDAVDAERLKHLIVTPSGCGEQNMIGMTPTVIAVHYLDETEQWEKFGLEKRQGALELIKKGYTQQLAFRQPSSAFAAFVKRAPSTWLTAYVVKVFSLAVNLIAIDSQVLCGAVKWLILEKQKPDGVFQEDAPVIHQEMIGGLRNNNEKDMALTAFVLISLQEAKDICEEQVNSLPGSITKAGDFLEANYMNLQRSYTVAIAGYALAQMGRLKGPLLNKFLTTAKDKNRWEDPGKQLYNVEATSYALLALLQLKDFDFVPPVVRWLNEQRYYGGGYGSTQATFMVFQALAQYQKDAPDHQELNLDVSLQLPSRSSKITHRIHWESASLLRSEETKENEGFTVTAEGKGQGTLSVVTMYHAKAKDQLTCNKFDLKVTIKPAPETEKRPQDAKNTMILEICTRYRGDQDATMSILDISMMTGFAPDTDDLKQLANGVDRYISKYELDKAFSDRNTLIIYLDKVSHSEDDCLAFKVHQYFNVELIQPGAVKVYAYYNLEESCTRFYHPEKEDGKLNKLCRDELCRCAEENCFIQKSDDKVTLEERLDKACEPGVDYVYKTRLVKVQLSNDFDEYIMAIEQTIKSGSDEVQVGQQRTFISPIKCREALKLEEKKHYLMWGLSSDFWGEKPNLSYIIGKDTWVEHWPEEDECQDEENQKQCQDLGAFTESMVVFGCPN
T1 sequence (P01024 23-667 limits assumed, chain 1 of 3): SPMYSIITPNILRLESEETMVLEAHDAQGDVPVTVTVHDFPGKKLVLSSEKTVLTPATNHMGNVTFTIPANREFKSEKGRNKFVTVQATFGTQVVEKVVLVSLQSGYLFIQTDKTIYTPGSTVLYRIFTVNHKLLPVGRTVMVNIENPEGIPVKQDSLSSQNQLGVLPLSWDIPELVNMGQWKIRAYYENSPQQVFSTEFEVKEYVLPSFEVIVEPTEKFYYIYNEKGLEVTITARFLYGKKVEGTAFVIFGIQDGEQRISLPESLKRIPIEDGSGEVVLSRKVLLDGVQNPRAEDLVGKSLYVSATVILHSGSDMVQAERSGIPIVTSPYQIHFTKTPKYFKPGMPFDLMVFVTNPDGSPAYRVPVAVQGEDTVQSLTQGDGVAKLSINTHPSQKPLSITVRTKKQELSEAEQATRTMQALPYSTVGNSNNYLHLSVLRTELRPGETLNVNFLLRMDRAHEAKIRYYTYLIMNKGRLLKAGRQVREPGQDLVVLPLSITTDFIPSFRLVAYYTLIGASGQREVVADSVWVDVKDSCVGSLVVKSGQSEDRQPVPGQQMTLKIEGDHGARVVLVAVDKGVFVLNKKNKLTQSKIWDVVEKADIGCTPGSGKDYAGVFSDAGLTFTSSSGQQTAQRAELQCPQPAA
T1 sequence (P01024 749-954 limits assumed, chain 2 of 3): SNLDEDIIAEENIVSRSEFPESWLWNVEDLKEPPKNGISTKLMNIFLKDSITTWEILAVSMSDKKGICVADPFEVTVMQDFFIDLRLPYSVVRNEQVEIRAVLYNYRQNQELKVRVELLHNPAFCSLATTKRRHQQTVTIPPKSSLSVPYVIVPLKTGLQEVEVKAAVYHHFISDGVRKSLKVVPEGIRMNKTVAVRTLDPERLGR
T1 sequence (P01024 1321-1663 limits assumed, chain 3 of 3): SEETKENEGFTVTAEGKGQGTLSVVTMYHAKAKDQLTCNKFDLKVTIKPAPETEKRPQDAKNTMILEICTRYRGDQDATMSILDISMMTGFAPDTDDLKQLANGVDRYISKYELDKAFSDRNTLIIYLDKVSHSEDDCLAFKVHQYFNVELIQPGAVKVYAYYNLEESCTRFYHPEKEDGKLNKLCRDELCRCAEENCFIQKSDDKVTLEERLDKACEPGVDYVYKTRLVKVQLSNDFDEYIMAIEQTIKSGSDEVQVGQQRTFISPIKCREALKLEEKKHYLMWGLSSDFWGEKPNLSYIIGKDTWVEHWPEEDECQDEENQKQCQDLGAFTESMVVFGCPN

Usually IC50 stands for the concentration needed to halve the response being measured. As for `CC[C@H](C)[C@H](NC(=O)[C@H](CO)NC(=O)[C@H](CCCNC(=N)N)NC(C)=O)C(=O)N[C@H]1CSSC[C@@H](C(=O)N[C@H](C(=O)NCCOCCOCCOCCOCCOCCOCCOCCOCCC(N)=O)[C@@H](C)O)NC(=O)[C@H](CCCNC(=N)N)NC(=O)[C@H](Cc2c[nH]cn2)NC(=O)[C@H](C)NC(=O)CNC(=O)[C@H](Cc2c[nH]c3ccccc23)NC(=O)[C@H](CC(=O)O)NC(=O)[C@H](CCC(N)=O)NC(=O)[C@H](Cc2c[nH]c3ccccc23)NC(=O)[C@H](C(C)C)NC1=O` [Peptide 2, Ac-RSI[CVWQDWGAHRC]T-PEG8-NH2], in data set [1], the “apparent solubility (comparison)” value was “significantly higher apparent solubility than the parent Peptide 1 and the Competition Peptide”. Further, the “slope of correlation between calculated and observed concentrations” value in data set [1] (absorbance at 280 nm) is on record as 0.92. Besides, in data set [2], the “reduction in NHS-induced basal C5b-9n deposition” value turned out to be 80%. Besides, the “inhibitory effect relative to parent Peptide 1” value in data set [2] (formation of C5b-9-rich sub-RPE deposits) was “two-fold greater inhibitory effect”. The molecule also came in with an IC50 in the data set on complement activation [3] of 960 nM.

Take `CC[C@H](C)[C@H](N)C(=O)N[C@H]1CSSC[C@@H](C(=O)N[C@H](C(N)=O)[C@@H](C)O)NC(=O)[C@H](CCCN=C(N)N)NC(=O)[C@H](Cc2cnc[nH]2)NC(=O)[C@H](Cc2cnc[nH]2)NC(=O)CNC(=O)[C@H](Cc2c[nH]c3ccccc23)NC(=O)[C@H](CC(=O)O)NC(=O)[C@H](CCC(N)=O)NC(=O)[C@H](C(C)C)NC(=O)[C@H](C(C)C)NC1=O` [compstatin, ICVVQDWGHHRCT]: the IC50 in the data set with complement activation [4] was ~12.9 µM.

Consider “Ac-RSI[CVWQDWGAHRC]T-NH2 (Ac-RSICVWQDWGAHRCT-NH2; disulfide 4-14) [Peptide 1, reference compound]”, for which the “reduction in NHS-induced basal C5b-9n deposition” value in data set [2] stood at 50%.

B1: Competition Peptide, unlabeled, Ac-I[CVWQDWGAHRC]TAGK-NH2 (peptide)
peptide: Ac-ICVWQDWGAHRCTAGK-NH2
modifications: disulfide 2-12
SMILES: CC[C@H](C)[C@H](NC(C)=O)C(=O)N[C@H]1CSSC[C@@H](C(=O)N[C@H](C(=O)N[C@@H](C)C(=O)NCC(=O)N[C@@H](CCCCN)C(N)=O)[C@@H](C)O)NC(=O)[C@H](CCCNC(=N)N)NC(=O)[C@H](Cc2c[nH]cn2)NC(=O)[C@H](C)NC(=O)CNC(=O)[C@H](Cc2c[nH]c3ccccc23)NC(=O)[C@H](CC(=O)O)NC(=O)[C@H](CCC(N)=O)NC(=O)[C@H](Cc2c[nH]c3ccccc23)NC(=O)[C@H](C(C)C)NC1=O
Turning to B1, the “Mean IC50, hemolytic assay (rabbit erythrocytes, normal human serum, alternative pathway)” value (“Mean IC50, hemolytic assay” for short) in data set [5] was 1.4 µM.

Take Ac-RSICVWQDWGAHRCT-NH2 (disulfide 4-14) [Peptide 1, Ac-RSI[CVWQDWGAHRC]T-NH2]: in data set [5], the “Mean IC50, hemolytic assay” value was determined as 0.97 µM.

B2: Peptide 2, Ac-RSI[CVWQDWGAHRC]T-PEG8-NH2 (peptide)
peptide: Ac-RSICVWQDWGAHRCT-{PEG8′-NH2}
modifications: disulfide 4-14
notes: Synthetic compstatin analog with an Arg-Ser N-terminal extension and a C-terminal PEG8; molecular mass 2279; also called PEGylated Peptide 2; PEGylated compstatin peptide
In general, Kd refers to the concentration at which binding is half-saturated. The low end stands for a tighter complex, the high end for a looser complex. B2: the “Mean IC50, hemolytic assay” value in data set [5] was found to be 0.96 µM. Further, the “IC50 (read off the curve)” value in data set [6] was ~0.7 µM. This molecule also had a Kd in data set [7] of 690 nM.
